# Measured values reported in US5128362A, “1-aminomethyl-1,2,3,4-tetrahydronaphthalenes” (Abbott Laboratories, priority 1990, dated 1992).
# Where a name gives a salt, the structure may show the parent alone.
# Biological target: T1, alpha 2 receptor (Rattus norvegicus, UniProt P22909)
# T1 construct: rat cerebral cortices; from tissue; host or cells: rat cerebral cortices
# T1 sequence (P22909 1-465): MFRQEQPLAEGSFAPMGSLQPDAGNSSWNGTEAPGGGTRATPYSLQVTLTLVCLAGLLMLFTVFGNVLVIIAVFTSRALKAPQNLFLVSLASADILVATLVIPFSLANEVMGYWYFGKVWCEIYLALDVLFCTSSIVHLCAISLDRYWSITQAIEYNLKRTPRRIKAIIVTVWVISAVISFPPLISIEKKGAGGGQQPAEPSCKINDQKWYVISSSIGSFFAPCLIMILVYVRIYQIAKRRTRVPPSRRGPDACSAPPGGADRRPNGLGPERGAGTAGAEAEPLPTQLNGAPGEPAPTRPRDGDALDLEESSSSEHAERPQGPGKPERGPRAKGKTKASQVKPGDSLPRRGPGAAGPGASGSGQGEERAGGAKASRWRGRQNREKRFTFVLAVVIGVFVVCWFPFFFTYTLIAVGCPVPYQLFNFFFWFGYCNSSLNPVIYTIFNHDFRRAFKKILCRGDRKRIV
# Test: Radioligand binding, [3H]rauwolscine, rat cerebral cortices
# Conditions: not given
# Description: (§1) The compounds were assessed for alpha-adrenergic receptor subtype selectivity by use of radioligand binding techniques as described previously (DeBernardis et. al. J. Med. Chem. 28, 1398 (1985)).
row,Structure (SMILES),Ki [nM]
1,"COc1ccc2c(c1)CCCC2CN(C)CCC1CCCC1 (centres unmarked) [Example 6f, 1-((N-methylamino)methyl-N-(2-(cyclopentyl)ethyl))-6-methoxy tetralin hydrochloride]",6.5

# Same assay, conditions: read-out: Ki alpha-2
row,Structure (SMILES),Ki [nM]
1,"CCN(CCc1cccs1)CC1CCCc2cc(OC)ccc21 (centres unmarked) [Example 41, 1-((N-Ethylamino)methyl-N-(2-(2-thienyl)ethyl))-6-methoxy tetralin hydrochloride]",2.9
2,"CCOc1ccc2c(c1)CCCC2CN(C)CCc1cccc(N)c1 (centres unmarked) [Example 69, 1-((N-Methylamino)methyl-N-(2-(m-aminophenyl)ethyl))-6-ethoxy tetralin dihydrochloride]",13
3,"CN(CCc1cccc(F)c1)CC1CCCc2c1ccc(O)c2O (centres unmarked) [Example 85, 1-((N-Methylamino)methyl-N-(2-(m-fluorophenyl)ethyl))-5,6-dihydroxy tetralin hydrochloride]",1.5
4,"CN(CCc1cccs1)CC1CCCc2ccccc21 (centres unmarked) [Example 22, 1-((N-Methylamino)methyl-N-(2-(2-thienyl)ethyl)) tetralin hydrochloride]",1.3
5,"CCN(CCc1cccs1)CC1CCCc2c1ccc1c2OCO1 (centres unmarked) [Example 164, 1-(N-Ethylamino)methyl-N-(2-(2-thienyl)ethyl))-5,6-methylenedioxy tetralin hydrochloride]",3.7
6,"COc1cc2c(cc1F)C(CN(C)CCc1ccco1)CCC2 (centres unmarked) [Example 141, 1-((N-methylamino)methyl-N-(2-(2-furyl)ethyl))-6-methoxy-7-fluoro tetralin methanesulfonate]",4.8
7,"COc1ccc2c(c1)CCC2CN1CCC(c2cccc(F)c2)C1 (centres unmarked) [Example 153, 5-Methoxy-1-(3-(m-fluorophenyl)pyrrolidino-1-methyl) indane hydrochloride]",8.6
8,"Fc1ccc2c(c1)CCCC2CN1CCC(c2ccccc2)C1 (centres unmarked) [Example 148, 6-Fluoro-1-(3-phenylpyrrolidino-1-methyl) tetralin methanesulfonate]",6.5
9,"CN(CCc1cccs1)CC1CCCc2c1ccc1c2OCO1 (centres unmarked) [Example 23, 1-((N-Methylamino)methyl-N-(2-(2-thienyl)ethyl))-5,6-methylenedioxy tetralin hydrochloride]",1.7
10,"CN(CCc1cccs1)CC1CCCc2cc(O)ccc21 (centres unmarked) [Example 7, 1-((N-Methylamino)methyl-N-(2-(2-thienyl)ethyl))-6-hydroxy tetralin hydrochloride]",1.6
11,"COc1ccc2c(c1)CCCC2CN(C)CCc1cccc(N)c1 (centres unmarked) [Example 67, 1-((N-Methylamino)methyl-N-(2-(m-aminophenyl)ethyl))-6-methoxy tetralin dihydrochloride]",6
12,"CCN(CCc1ccco1)CC1CCCc2cc(OC)ccc21 (centres unmarked) [Example 43, 1-((N-Ethylamino)methyl-N-(2-(2-furyl)ethyl))-6-methoxy tetralin hydrochloride]",6
13,"CCN(CCc1cccs1)CC1CCCc2c1ccc1c2OCCO1 (centres unmarked) [Example 168, 1-((N-Ethylamino)methyl-N-(2-(2-thienyl)ethyl))-5,6-ethylenedioxy tetralin hydrochloride]",6.6
14,"CN(CCc1cccc(O)c1)CC1CCCc2cc(O)ccc21 (centres unmarked) [Example 82, 1-((N-Methylamino)methyl-N-(2-(m-hydroxyphenyl)ethyl))-6-hydroxy tetralin hydrochloride]",4
15,"c1csc(C2CCN(CC3CCCc4c3ccc3c4OCO3)C2)c1 (centres unmarked) [Example 144, 5,6-Methylenedioxy-1-(3-(2-thienyl)pyrrolidino-1-methyl) tetralin methanesulfonate]",1.2
16,"COc1ccc2c(c1)CCCC2CN(C)CCc1cccs1 (centres unmarked) [Example 5, 1-((N-Methylamino)methyl-N-(2-(2-thienyl)ethyl))-6-methoxy tetralin methanesulfonate]",0.8
17,"CCCN(CCc1cccs1)CC1CCCc2cc(OC)ccc21 (centres unmarked) [Example 58, 1-((N-Propylamino)methyl)-N-(2-(2-thienyl)ethyl))-6-methoxy tetralin hydrochloride]",18
18,"COc1ccc2c(c1)CCC2CN(C)CCc1cccs1 (centres unmarked) [Example 37, 1-((N-Methylamino)methyl-N-(2-(2-thienyl)ethyl))-5-methoxy indane hydrochloride]",3.7
19,"COc1ccc2c(c1OC)CCCC2CN(C)CCc1cccs1 (centres unmarked) [Example 86, 1-((N-Methylamino)methyl-N-(2-(2-thienyl)ethyl))-5,6-dimethoxy tetralin hydrochloride]",3
20,"CN(CCc1ccccc1)CC1CCCc2cc(N)ccc21 (centres unmarked) [Example 114, 1-((N-Methylaminomethyl-N-(2-phenylethyl))-6-aminotetralindihydrochloride]",5.7
21,"CCN(CCc1cccc(F)c1)CC1CCCc2c1ccc1c2OCO1 (centres unmarked) [Example 165, 1-((N-Ethylamino)methyl-N-(2-m-fluorophenethyl))-5,6-methylenedioxy tetralin hydrochloride]",3.5
22,"Fc1ccccc1C1CCN(CC2CCCc3c2ccc2c3OCO2)C1 (centres unmarked) [Example 176a, 5.6-Methylenedioxy-1-(3-(o-fluorophenyl)pyrrolidino-1-methyl) tetralin methanesulfonate]",0.6
23,"COc1ccc2c(c1)C(CN(C)CCc1cccs1)CCC2 (centres unmarked) [Example 27, 1-((N-Methylamino)methyl-N-(2-(2-thienyl)ethyl))-7-methoxy tetralin hydrochloride]",2
24,"CN(CCc1ccccc1)CC1CCCc2ccccc21 (centres unmarked) [Example 88, 1-((N-Methylamino)methyl-N-(2-phenethyl)) tetralin hydrochloride]",2

# More lines, now with the values ahead:
row,Ki [nM],Structure (SMILES)
1,10,"CN(CCc1cccs1)CC1CCCc2cc(Cl)ccc21 (centres unmarked) [Example 49, 1-((N-Methylamino)methyl-N-(2-(2-thienyl)ethyl))-6-chloro tetralin hydrochloride]"
2,8,"COc1cc2c(cc1C)C(CN(C)CCc1ccco1)CCC2 (centres unmarked) [Example 128, 1-((N-Methylamino)methyl-N-(2-(2-furyl)ethyl))-methoxy-7-methyl tetralin hydrochloride]"
3,8,"COc1ccc2c(c1)CCCC2CN(C)CCc1cccc(O)c1 (centres unmarked) [Example 83, 1-((N-Methylamino)methyl-N-(2-(m-hydroxyphenyl)ethyl))-6-methoxy tetralin hydrochloride]"
4,6.6,"CCN(CCc1cccc(F)c1)CC1CCCc2cc(OC)ccc21 (centres unmarked) [Example 42, 1-((N-Ethylamino)methyl-N-(2-(m-fluorophenyl)ethyl))-6-methoxy tetralin hydrochloride]"
5,6,"CN(CCc1cccc(N)c1)CC1CCCc2cc(O)ccc21 (centres unmarked) [Example 68, 1-((N-Methylamino)methyl-N-(2-(m-aminophenyl)ethyl))-6-hydroxy tetralin dihydrobromide]"
6,5.6,"CCN(CCc1ccsc1)CC1CCCc2cc(OC)ccc21 (centres unmarked) [Example 44, 1-((N-Ethylamino)methyl-N-(2-(3-thienyl)ethyl))-6-methoxy tetralin hydrochloride]"
7,5,"COc1ccc2c(c1)CCCC2CN(C)CCc1cccc(F)c1 (centres unmarked) [Example 6b, 1-((N-methylamino)methyl-N-(2-(m-fluorophenyl)ethyl))-6-methoxy tetralin hydrochloride]"
8,5,"COc1ccc2c(c1)CCCC2CN(C)CCc1cccn1C (centres unmarked) [Example 12, 1-((N-Methylamino)methyl-N-(2-(N-methyl-2-pyrrolyl)-ethyl))-6-methoxy tetralin fumarate]"
9,5,"CN(CCc1cccc(F)c1)CC1CCCc2ccccc21 (centres unmarked) [Example 70, 1-((N-Methylamino)methyl-N-(2-(m-fluorophenyl)ethyl))-tetralin hydrochloride]"
10,4.5,"CN(CCc1cccc(F)c1)CC1CCCc2c1ccc1c2OCO1 (centres unmarked) [Example 166, 1-((N-Methylamino)methyl-N-(2-m-fluorophenethyl))-5,6-methylenedioxy tetralin methanesulfonate]"
11,4,"CN(CCc1cccs1)CC1CCCc2c1ccc1c2OCCO1 (centres unmarked) [Example 30, 1-((N-Methylamino)methyl-N-(2-(2-thienyl)ethyl))-5,6-ethylenedioxy tetralin hydrochloride]"
12,3,"CN(CCc1cccs1)CC1CCCc2c1ccc(O)c2I (centres unmarked) [Example 115, 1-((N-Methylamino)methyl-N-(2-(2-thienyl)ethyl))-5-iodo-6-hydroxy tetralin hydrochloride]"
13,2.6,"Cc1cc(O)c(O)c2c1C(CN(C)CCc1cccc(F)c1)CCC2 (centres unmarked) [Example 34, 1-((N-Methylamino)methyl-N-(2-(m-fluorophenyl)ethyl))-5,6-dihydroxy-8-methyl tetralin hydrobromide]"
14,1.6,"CN(CCc1cccs1)CC1CCCc2c1ccc(O)c2O (centres unmarked) [Example 87, 1-((N-Methylamino)methyl-N-(2-(2-thienyl)ethyl))-5,6-dihydroxy tetralin hydrochloride]"
15,1.5,"COc1ccc2c(c1)CCCC2CN(C)CCc1ccsc1 (centres unmarked) [Example 6d, 1-((N-methylamino)methyl-N-(2-(3-thienyl)ethyl))-6-methoxy tetralin hydrochloride]"
16,0.6,"COc1cc2c(c(OC)c1)C(CN(C)CCc1cccs1)CCC2 (centres unmarked) [Example 26, 1-((N-Methylamino)methyl-N-(2-(2-thienyl)ethyl))-6,8-dimethoxy tetralin hydrochloride]"

# Tested on: alpha 2 receptor
# Test: as above
# Conditions: Ki alpha 1/Ki alpha-2
# Description: as §1
row,alpha-2 - Selectivity Ki alpha 1/Ki alpha-2,Structure (SMILES)
1,98,"CCOc1ccc2c(c1)CCCC2CN(C)CCc1cccc(N)c1 (centres unmarked) [Example 69, 1-((N-Methylamino)methyl-N-(2-(m-aminophenyl)ethyl))-6-ethoxy tetralin dihydrochloride]"
2,7,"COc1ccc2c(c1)CCC2CN1CCC(c2cccc(F)c2)C1 (centres unmarked) [Example 153, 5-Methoxy-1-(3-(m-fluorophenyl)pyrrolidino-1-methyl) indane hydrochloride]"
3,19,"Fc1ccc2c(c1)CCCC2CN1CCC(c2ccccc2)C1 (centres unmarked) [Example 148, 6-Fluoro-1-(3-phenylpyrrolidino-1-methyl) tetralin methanesulfonate]"
